Values of other authors, collected in patent publication US20250236629A1, “MEDIUM- OR MACRO-CYCLIC BENZYL-SUBSTITUTED HETEROCYCLE DERIVATIVES AND RELATED USES” (CENTESSA PHARMACEUTICALS (UK) LIMITED, priority 2022, published 2025).
Read-outs that look alike come from different tables or passages of the source.

Experiments:
OX2R = target: T1, OX2R (Mus musculus, UniProt P58308); conditions: subcutaneous, cited from earlier work
T1 construct: host or cells: mice (WT, orexin-deficient and NT1 models), endogenous receptor in brain
T1 sequence (P58308 1-460): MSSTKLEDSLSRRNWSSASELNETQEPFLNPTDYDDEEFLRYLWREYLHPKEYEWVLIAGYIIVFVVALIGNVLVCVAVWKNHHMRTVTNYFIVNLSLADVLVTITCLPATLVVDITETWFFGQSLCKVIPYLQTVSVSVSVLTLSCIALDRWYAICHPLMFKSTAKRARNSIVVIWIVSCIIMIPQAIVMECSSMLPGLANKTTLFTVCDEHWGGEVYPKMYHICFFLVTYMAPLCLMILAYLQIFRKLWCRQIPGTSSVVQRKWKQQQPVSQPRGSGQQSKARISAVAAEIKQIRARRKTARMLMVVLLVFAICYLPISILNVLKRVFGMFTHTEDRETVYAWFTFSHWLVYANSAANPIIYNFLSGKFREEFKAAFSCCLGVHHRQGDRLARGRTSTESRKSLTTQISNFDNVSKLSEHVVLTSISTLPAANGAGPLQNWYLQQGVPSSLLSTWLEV

individuals with NT1 = conditions: initial clinical studies; cited from earlier work

Structure (SMILES): COC(=O)N1CCC[C@H](NS(C)(=O)=O)[C@@H]1CO[C@H]1CC[C@@H](c2ccccc2)CC1 [TAK-925]
- wakefulness (OX2R; OX2R-knockout mice): not in OX2R-knockout mice
- wakefulness (OX2R; WT mice): modestly increased wakefulness
- cataplexy (individuals with NT1): trends for decreasing cataplexy
- wakefulness (individuals with NT1): substantial levels of increased wakefulness
